Assay results from patent US20070092551A1, “Therapeutic agent” (TAKARA BIO INC., priority 2003, published 2007).

Assays:
[1] = test system: mature adipocytes which were induced to be differentiated by xanthoangelol; assay: Glucose uptake into adipocytes induced to be differentiated by xanthoangelol; assay type: cell-based; details: stimulation with 4-hydroxyderricin 20 μM; adipocytes differentiated with xanthoangelol 10 μM
Protocol: Adipocytes which were induced to be differentiated by xanthoangelol were obtained, and thereafter it was confirmed on whether the glucose uptake into the adipocytes is enhanced by stimulation with insulin or 4-hydroxyderricin.
Specifically, as a sample, there was set a group with addition of a dimethyl sulfoxide solution of xanthoangelol having a final concentration of 10 μM. Thereafter, the medium and the sample were exchanged in the same manner as in the method described in Example 82 except that 3-isobutyl-1-methylxanthine having a final concentration of 0.5 mM was added concurrently with the addition of dexamethasone, to give mature adipocytes which were induced to be differentiated by xanthoangelol.
Next, the amount of 2-deoxyglucose uptake into the mature adipocytes during the stimulation with insulin or 4-hydroxyderricin in the resulting mature adipocytes was determined in the same manner as in the method described in Example 83.
Specifically, there were set the group without the addition and the group with addition of insulin having a final concentration of 1 μg/mL or 4-hydroxyderricin having a final concentration of 20 μM. Thereafter, the amount of 2-deoxy-[1,2-^3H(N)]-glucose uptake into the adipocytes was determined in the same manner.

[2] = test system: type II diabetes model mice; assay: Amelioration effects on diabetes of 4-hydroxyderricin (blood glucose level); assay type: in vivo; details: male KK-Ay mice
Protocol: Pathological amelioration effects of 4-hydroxyderricin were examined using type II diabetes model mice. Experiments were carried out with five male 12-week old KK-Ay mice (CLEA Japan, Inc.) per group. 4-Hydroxyderricin was suspended or dissolved in a 0.5% (w/v) carboxymethyl cellulose solution (CMC) so as to have a concentration of 4% (w/v), and the suspension or solution was forcibly orally administered to the mice once a day at 200 mg/kg for consecutive days. CMC was administered to each mice in the control group at 5 mL/kg in the same manner. On the day before the beginning of administration, on the fourth day and on the eighteenth day, blood was collected from the veins of mouse tails, and the blood glucose level was determined with a simple blood glucose meter, ACCU-CHEK Compact (Roche Diagnostics K.K.). […] Here, during the experimental period, no changes were found in body weight and general symptoms.

[3] = test system: mature adipocytes (3T3-L1 cells); assay: Synergistic action of 4-hydroxyderricin and insulin to enhance glucose uptake; assay type: cell-based
Protocol: As the evaluation of synergistic action of 4-hydroxyderricin prepared in Example 2 and a low-concentration insulin to enhance glucose uptake, the amount of 2-deoxyglucose uptake into mature adipocytes during the stimulation with the sample was determined partly in accordance with the method described in Example 83.
The mature adipocytes were prepared according to the method described in item (1) of Example 83.
After the termination of the culture, the medium was removed, and the cells were washed twice with a 0.1% (w/v) bovine serum albumin (manufactured by Sigma, A8022)-containing Dulbecco's modified Eagle's medium. Thereafter, 1 mL of the same medium containing a solution of 4-hydroxyderricin in dimethyl sulfoxide having a final concentration of 5 μM was added thereto. The cells were cultured overnight at 37° C. in the presence of 5% carbon dioxide gas. Here, a group without addition of 4-hydroxyderricin was set as a negative control. After the overnight culture, the cells were washed twice with a HEPES buffered saline (140 mM NaCl, 5 mM KCl, 2.5 mM MgSO4, 1 mM CaCl2, 20 mM HEPES-Na (pH 7.4)). The amount 0.9 mL of the same buffer containing 4-hydroxyderricin having a final concentration of 5 μM was added thereto. […] Thereafter, 2-deoxy-[1,2-^3H(N)]-glucose subjected to uptake into the adipocytes was determined in the same manner as the method described in item (2) of Example 83.

[4] = test system: insulin-resistant mature adipocytes; assay: Enhancing action on glucose uptake into insulin-resistant (TNF-α treated) mature adipocytes; assay type: cell-based; details: 4-hydroxyderricin 30 μM; mature adipocytes treated with mouse-derived TNF-α 10 or 20 ng/mL
Protocol: It is said that tumor necrosis factor a (TNF-α) is deeply involved in insulin resistance, and it has been known that a signal from an insulin receptor is inhibited by treating mature adipocytes with TNF-α, so that a reaction of glucose uptake is inhibited by insulin stimulation (Proc. Natl. Acad. Sci. USA, vol. 91, p 4854-4858 (1994)). The enhancing action by 4-hydroxyderricin on glucose uptake into mature adipocytes in which insulin resistance was induced by TNF-α was evaluated.
The induction of differentiation into mature adipocytes was carried out in the same manner as in the method described in Example 83, except that after preparation of the mature adipocytes, in order to induce insulin resistance in these mature adipocytes, mouse-derived TNF-α (manufactured by Cosmobio, 3410) was added to the medium so as to have a final concentration of 10 ng/mL or 20 ng/mL, and the adipocytes were cultured for additional 2 days. […]
The enhancing action on glucose uptake was evaluated in the same manner as in the method described in Example 83. For each of the cells prepared in item (1) of Example 95 mentioned above, there were set a group containing 4-hydroxyderricin at a final concentration of 30 μM, a group without addition of the sample as a negative control, and a group with treatment with insulin, and the radioactivity of each group was determined. […]

[5] = 200 mg/kg oral once a day in CMC, mean ± standard error

COc1ccc(C(=O)/C=C/c2ccc(O)cc2)c(O)c1CC=C(C)C [4-Hydroxyderricin, 4,2′-Dihydroxy-3′-prenyl-4′-methoxychalcone]
2-deoxy-[1,2-3H(N)]-glucose uptake [1]: enhancement of 2-deoxy-[1,2-^3H(N)]-glucose uptake
blood glucose level (in words) ([2]; 200 mg/kg oral once a day): lowered
Blood Glucose Level, Eighteenth Day [2, 5]: 191 ± 10 mg/dL
Blood Glucose Level, Fourth Day [2, 5]: 187 ± 9 mg/dL
changes in body weight and general symptoms ([2]; 200 mg/kg oral once a day, experimental period): no changes
Blood Glucose Level, Previous Day ([2]; day before beginning of administration, 200 mg/kg oral once a day in CMC, mean ± standard error): 262 ± 14 mg/dL
2-deoxy-[1,2-3H(N)]-glucose uptake on addition simultaneously with insulin ([3]; 4-hydroxyderricin 5 μM + insulin 0.01 μg/mL, versus each alone): synergistically increasing the enhancing activity on glucose uptake
2-deoxy-[1,2-3H(N)]-glucose uptake ([3]; 4-hydroxyderricin 5 μM alone, compared to the negative control): enhancement of 2-deoxy-[1,2-^3H(N)]-glucose uptake
enhancing action on glucose uptake, increase without TNF-α defined as 100% [4]: around 80%
